From article PMC11822212, “High-throughput screening identifies Aurora kinase B as a critical therapeutic target for Merkel cell carcinoma” (Nature Communications, 2025) come the findings set out here.

The test system of assay [1] is MCC13 cells (VN-MCC). Put plainly: qHTS cell viability (CellTiter-Glo, 72 h; primary and follow-up small molecule screen). In kind it is cell-based, human. For orientation: Quantitative high-throughput screening tests each substance at several concentrations.
Assay [2] relates to MCC26 cells (VN-MCC). Described as above. In kind it is cell-based, human.
Assay [3] deals with UISO cells (VN-MCC). The description is as above. In kind it is cell-based, human.
Assay [4] relates to WAGA cells (VP-MCC). Described as above. In kind it is cell-based, human.
Assay [5] concerns MKL-1 cells (VP-MCC). The assay is described as above. In kind it is cell-based, human.
In assay [6] the test system is MKL-2 cells (VP-MCC). The description is as above. In kind it is cell-based, human.
The subject of assay [7] is HACAT cells. In words: qHTS cell viability (CellTiter-Glo, 72 h; primary screen), control cell line. In kind it is cell-based, human.
The subject of assay [8] is HEK293T cells. The assay is described as above. In kind it is cell-based, human.
Assay [9] relates to NIH-3T3 cells. The description is as above. In kind it is cell-based, mouse.
The test system of assay [10] is CRL-7250 cells. Described as above. In kind it is cell-based.

Where two headings read alike, the source gives them in different places.

`COC[C@H]1OC(=O)c2coc3c2[C@@]1(C)C1=C(C3=O)[C@@H]2CC[C@H](O)[C@@]2(C)C[C@H]1OC(C)=O` [17_-hydroxy Wortmannin]: in assay [1], the “Area under the dose-response curve (AUC) MCC13 Replicate 1” value is 446.4, the “Area under the dose-response curve (AUC) MCC13 Replicate 2” value is given as 414.9, the “Area under the dose-response curve (AUC) MCC13 Replicate 3” value came to 433.1 and the MCC13_AUC is 505.746. In addition, in assay [2], the “Area under the dose-response curve (AUC) MCC26 Replicate 1” value was determined as 392.5, the “Area under the dose-response curve (AUC) MCC26 Replicate 2” value is given as 398.0, the “Area under the dose-response curve (AUC) MCC26 Replicate 3” value turned out to be 386.6 and the MCC26_AUC stood at 506.622. For the same molecule, in assay [3], the “Area under the dose-response curve (AUC) UISO Replicate 1” value is on record as 419.6, the “Area under the dose-response curve (AUC) UISO Replicate 2” value turned out to be 426.0, the “Area under the dose-response curve (AUC) UISO Replicate 3” value came to 431.4 and the UISO_AUC worked out at 484.969. Further, in assay [4], the “Area under the dose-response curve (AUC) WAGA Replicate 1” value is listed as 390.4, the “Area under the dose-response curve (AUC) WAGA Replicate 2” value was 444.0, the “Area under the dose-response curve (AUC) WAGA Replicate 3” value is 465.6 and the WAGA_AUC was 431.369. In addition, in assay [5], the “Area under the dose-response curve (AUC) MKL-1 Replicate 1” value amounted to 417.4, the “Area under the dose-response curve (AUC) MKL-1 Replicate 2” value worked out at 456.9, the “Area under the dose-response curve (AUC) MKL-1 Replicate 3” value is 460.6 and the MKL1_AUC came to 433.03. In [6], the “Area under the dose-response curve (AUC) MKL-2 Replicate 1” value stood at 408.4, the “Area under the dose-response curve (AUC) MKL-2 Replicate 2” value was determined as 434.1, the “Area under the dose-response curve (AUC) MKL-2 Replicate 3” value worked out at 442.8 and the MKL2_AUC came out at 431.749. Further, in assay [7], the HACAT_AUC is recorded as 466.176. The molecule also came in with an HEK293T_AUC in assay [8] of 476.067. This molecule also came in with an NIH3T3_AUC in assay [9] of 465.601. This molecule gave a CRL7250_AUC in assay [10] of 461.56.
In [1], `CC(N[C@H]1CCCC[C@@H]1NC(=O)c1ccc(Cl)cc1)c1cccc2ccccc12` (stereo partly shown) [Calhex-231] displayed an MCC13_AUC of 461.512. In assay [2], this molecule showed an MCC26_AUC of 461.125. Moreover, in [3], the UISO_AUC was 470.957. In assay [4], the WAGA_AUC was found to be 428.682. Besides, the MKL1_AUC in assay [5] is recorded as 380.302. In assay [6], this molecule returned an MKL2_AUC of 347.428. The molecule further displayed an HACAT_AUC in assay [7] of 466.353. Further, the HEK293T_AUC in assay [8] turned out to be 469.437. The same molecule returned an NIH3T3_AUC in [9] of 459.862. This molecule came in with a CRL7250_AUC in assay [10] of 474.743.
For the molecule `C[C@H](CCC(=O)O)[C@H]1CC[C@H]2[C@@H]3[C@H](O)C[C@@H]4C[C@H](O)CC[C@]4(C)[C@H]3CC[C@]12C` [Chenodeoxycholic acid], the MCC13_AUC in [1] (area under the dose-response curve, MCC13 cells, AUC<450 = reduced viability) was 458.762. In addition, the MCC26_AUC in [2] (area under the dose-response curve, MCC26 cells, AUC<450 = reduced viability) worked out at 489.842. The molecule further registered a UISO_AUC in assay [3] (area under the dose-response curve, UISO cells, AUC<450 = reduced viability) of 483.595. This molecule returned a WAGA_AUC in assay [4] (area under the dose-response curve, WAGA cells, AUC<450 = reduced viability) of 440.562. For the same molecule, the MKL1_AUC in assay [5] (area under the dose-response curve, MKL-1 cells, AUC<450 = reduced viability) was determined as 439.87. In [6] (area under the dose-response curve, MKL-2 cells, AUC<450 = reduced viability), this molecule yielded an MKL2_AUC of 427.388. The HACAT_AUC in assay [7] (area under the dose-response curve, HACAT control cells, AUC<450 = reduced viability) worked out at 475.403. Further, the HEK293T_AUC in assay [8] (area under the dose-response curve, HEK293T control cells, AUC<450 = reduced viability) was found to be 474.014. In [9] (area under the dose-response curve, NIH3T3 control cells, AUC<450 = reduced viability), the NIH3T3_AUC turned out to be 479.384. In addition, the CRL7250_AUC in assay [10] (area under the dose-response curve, CRL7250 control cells, AUC<450 = reduced viability) came out at 462.86.
In the case of `O=c1cccc2n1C[C@@H]1CNC[C@H]2C1` [Cytisine], in assay [1], the “Area under the dose-response curve (AUC) MCC13 Replicate 1” value came out at 466.2, the “Area under the dose-response curve (AUC) MCC13 Replicate 2” value was found to be 472.1, the “Area under the dose-response curve (AUC) MCC13 Replicate 3” value is on record as 495.9 and the MCC13_AUC was determined as 474.327. In assay [2], the “Area under the dose-response curve (AUC) MCC26 Replicate 1” value is given as 425.8, the “Area under the dose-response curve (AUC) MCC26 Replicate 2” value was determined as 426.1, the “Area under the dose-response curve (AUC) MCC26 Replicate 3” value came out at 461.0 and the MCC26_AUC is listed as 479.664. In addition, in assay [3], the “Area under the dose-response curve (AUC) UISO Replicate 1” value worked out at 456.3, the “Area under the dose-response curve (AUC) UISO Replicate 2” value worked out at 469.0, the “Area under the dose-response curve (AUC) UISO Replicate 3” value came to 502.6 and the UISO_AUC is 498.318. In addition, in assay [4], the “Area under the dose-response curve (AUC) WAGA Replicate 1” value amounted to 496.1, the “Area under the dose-response curve (AUC) WAGA Replicate 2” value was 525.9, the “Area under the dose-response curve (AUC) WAGA Replicate 3” value turned out to be 499.6 and the WAGA_AUC amounted to 346.525. Moreover, in [5], the “Area under the dose-response curve (AUC) MKL-1 Replicate 1” value was determined as 469.7, the “Area under the dose-response curve (AUC) MKL-1 Replicate 2” value is 497.8, the “Area under the dose-response curve (AUC) MKL-1 Replicate 3” value turned out to be 481.7 and the MKL1_AUC was found to be 435.746. Besides, in assay [6], the “Area under the dose-response curve (AUC) MKL-2 Replicate 1” value is on record as 465.6, the “Area under the dose-response curve (AUC) MKL-2 Replicate 2” value is reported as 500.2, the “Area under the dose-response curve (AUC) MKL-2 Replicate 3” value was 495.6 and the MKL2_AUC was 398.634. The HACAT_AUC in assay [7] is recorded as 465.853. The molecule also showed an HEK293T_AUC in [8] of 476.432. The NIH3T3_AUC in assay [9] came to 477.468. In assay [10], this molecule returned a CRL7250_AUC of 469.524.
